The values that follow come from patent US20120214847A1, “2-[1-PHENYL-5-HYDROXY-4a-SUBSTITUTED-HEXAHYDROCYCLOPENTA[F]INDAZOL-5-YL]ETHYL PHENYL DERIVATIVES AS GLUCOCORTICOID RECEPTOR LIGANDS” (Merck Sharp & Dohme Corp., priority 2009, published 2012).

Each structure is given as a SMILES string.

This test has as its target T1, glucocorticoid receptor (Homo sapiens, UniProt P04150).
T1 construct: endogenous in cells; host or cells: HeLa (ATCC) cell lysate supernatant
T1 sequence (P04150 1-777): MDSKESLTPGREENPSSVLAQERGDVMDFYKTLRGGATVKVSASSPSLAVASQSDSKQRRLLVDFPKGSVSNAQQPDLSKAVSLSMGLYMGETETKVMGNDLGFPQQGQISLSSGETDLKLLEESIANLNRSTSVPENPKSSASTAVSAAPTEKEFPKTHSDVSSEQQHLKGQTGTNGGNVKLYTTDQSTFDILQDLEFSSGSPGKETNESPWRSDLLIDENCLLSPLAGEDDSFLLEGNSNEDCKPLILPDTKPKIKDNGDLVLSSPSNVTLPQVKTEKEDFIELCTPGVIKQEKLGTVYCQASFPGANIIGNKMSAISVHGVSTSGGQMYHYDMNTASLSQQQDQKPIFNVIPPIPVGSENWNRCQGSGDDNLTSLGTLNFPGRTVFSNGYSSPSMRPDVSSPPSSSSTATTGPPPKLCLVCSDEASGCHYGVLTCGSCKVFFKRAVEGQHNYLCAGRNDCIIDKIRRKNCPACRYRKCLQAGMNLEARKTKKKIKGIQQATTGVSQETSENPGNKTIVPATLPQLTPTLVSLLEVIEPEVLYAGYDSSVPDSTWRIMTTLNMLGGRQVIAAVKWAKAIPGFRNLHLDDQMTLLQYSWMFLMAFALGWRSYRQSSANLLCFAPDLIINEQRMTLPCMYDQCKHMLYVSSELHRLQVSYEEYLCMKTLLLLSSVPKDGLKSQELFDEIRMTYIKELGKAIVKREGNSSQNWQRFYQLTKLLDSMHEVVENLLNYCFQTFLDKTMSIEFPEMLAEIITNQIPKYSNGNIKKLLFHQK
In words: Ligand binding assay (GRBind), 3H-dexamethasone displacement in HeLa cell lysate. The settings on record: 3H-DEX tracer. The gist of the method: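 Cytosolic supernatant from HeLa cells in TEGM buffer (pH 7.2, with molybdate) was incubated overnight at 4 °C with 3H-dexamethasone (6 nM trace solution) and serially diluted compound, with 2% ethanol. Bound receptor was captured on hydroxylapatite, filtered and counted by scintillation. IC50s were calculated using dexamethasone as reference.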
The Ki is the equilibrium dissociation constant of an inhibitor or competing ligand from its target. Compound `OC(C[C@]1(O)CCC2=Cc3c(cnn3-c3ccc(F)cc3)C[C@@]21C1CC1)c1ccc(F)cn1` (single isomer, unassigned) [Example 79b] registered a Ki of 1.55 nM. `CC[C@]12Cc3cnn(-c4ccc(F)cc4)c3C=C1CC[C@@]2(O)CCc1ncccc1S(C)(=O)=O` [Example 80, (4aS,5R)-4a-Ethyl-1-(4-fluorophenyl)-5-{2-[3-(methylsulfonyl)pyridin-2-yl]ethyl}-1,4,4a,5,6,7-hexahydrocyclopenta[f]indazol-5-ol] came in with a Ki of 1.32 nM. As to `CC[C@]12Cc3cnn(-c4ccccc4)c3C=C1CC[C@@]2(O)CC(O)c1ccccn1` (single isomer, unassigned) [Example 82b], the Ki is 5.46 nM. Next, `OCc1ccccc1CC[C@]1(O)CCC2=Cc3c(cnn3-c3ccc(F)cc3)C[C@@]21C1CC1` [Example 2, (4aR,5R)-4a-Cyclopropyl-1-(4-fluorophenyl)-5-{2-[2-(hydroxymethyl)phenyl]ethyl}-1,4,4a,5,6,7-hexahydrocyclopenta[f]indazol-5-ol]: 1.32 nM.

As for `CC[C@]12Cc3cnn(-c4ccccc4)c3C=C1CC[C@@]2(O)CCc1ncccc1S(=O)(=O)C(C)C` [Example 81, (4aS,5R)-4a-Ethyl-5-{2-[3-(iso-propylsulfonyl)pyridin-2-yl]ethyl}-1-phenyl-1,4,4a,5,6,7-hexahydrocyclopenta[f]indazol-5-ol], the Ki is 7.3 nM. Next, `NC(=O)C(O)c1ccccc1CC[C@]1(O)CCC2=Cc3c(cnn3-c3ccc(F)cc3)C[C@@]21C1CC1` (single isomer, unassigned) [Example 3a]: 1.8 nM; `CC[C@]12Cc3cnn(-c4ccccc4)c3C=C1CC[C@@]2(O)CC(O)c1ccccn1` (single isomer, unassigned) [Example 82a]: 11.3 nM.
